Measurements: patent US8193372B2, “Phosphothiophene and phosphothiazole HCV polymerase inhibitors” (Idenix Pharmaceuticals, Inc., priority 2009, dated 2012)

Key:
[1] = tested on: HCV Con1 subgenomic replicon of genotype 1b (GS4.1 cells); test: microbe, parasite or virus in culture; format: cell-based, HCV genotype 1b; conditions: Hepatitis C virus; for EC50: 72 h
in vitro = conditions: human

| SMILES | IC50 [1] [µM] | EC50 [1] [µM] | CC50 (in vitro) [µM] |
| --- | --- | --- | --- |
| CCOP(=O)(Nc1cc(-c2ccc(F)cc2)sc1C(=O)O)c1ccc(C)cc1C (stereo not shown) [Compound 22, 2-Thiophenecarboxylic acid, 3-N-[(2,4-dimethyl-phenyl)-phosphonamidateethyl ester]-5-(4-fluorophenyl)] | 0.1 to 8.3 | 0.1 to 8.3 | > 8.3 |
| CCOP(=O)(Nc1cc(-c2ccc(F)cc2)sc1C(=O)O)c1ccc(Cl)cc1Cl (stereo not shown) [Compound 23] | 0.1 to 8.3 | > 8.3 | > 8.3 |
| COP(=O)(Nc1cc(-c2ccccc2)sc1C(=O)O)c1ccccc1 (stereo not shown) [Compound 25, 2-Thiophenecarboxylic acid, 3-N-(phenyl-phosphonamidatemethyl ester)-5-phenyl] | > 8.3 | > 8.3 | > 8.3 |
| COP(=O)(Nc1cc(-c2ccc(-c3cc4ncccn4n3)cc2)sc1C(=O)O)c1ccc(C)cc1C (stereo not shown) [Compound 26] | < 0.1 | < 0.1 | > 8.3 |
| COP(=O)(Nc1cc(-c2ccccc2)sc1C(=O)O)c1ccc(C)cc1C (stereo not shown) [Compound 27, 2-Thiophenecarboxylic acid, 3-N-[(2,4-dimethyl-phenyl)-phosphonamidatemethyl ester]-5-phenyl] | < 0.1 | 0.1 to 8.3 | > 8.3 |
| CCOP(=O)(Nc1cc(-c2ccccc2)sc1C(=O)O)c1ccc(Cl)cc1Cl (stereo not shown) [Compound 28, 2-Thiophenecarboxylic acid, 3-N-[(2,4-dichlorophenyl)-phosphonamidateethyl ester]-5-phenyl] | 0.1 to 8.3 | > 8.3 | > 8.3 |
| CCOP(=O)(Nc1cc(-c2ccc(C#N)cc2)sc1C(=O)O)c1ccc(Cl)cc1Cl (stereo not shown) [Compound 29, 2-Thiophenecarboxylic acid, 3-N-[(2,4-dichlorophenyl)-phosphonamidateethyl ester]-5-(4-cyanophenyl)] | – | > 8.3 | > 8.3 |
| CCOP(=O)(c1ccc(C)cc1C)N(c1cc(-c2ccc(F)cc2)sc1C(=O)O)C(C)C (stereo not shown) [Compound 33, 2-Thiophenecarboxylic acid, 3-N-isopropyl-N-[(2,4-dimethyl-phenyl)-phosphonamidateethyl ester]-5-(4-fluorophenyl)] | 0.1 to 8.3 | 0.1 to 8.3 | > 8.3 |
| COP(=O)(Nc1cc(-c2ccc(Cl)cc2F)sc1C(=O)O)c1ccc(C)cc1C (stereo not shown) [Compound 79] | < 0.1 | 0.1 to 8.3 | > 8.3 |
| COP(=O)(Nc1cc(-c2ccccc2F)sc1C(=O)O)c1ccc(C)cc1C (stereo not shown) [Compound 80] | 0.1 to 8.3 | > 8.3 | > 8.3 |
| COc1ccncc1-c1cc(NP(=O)(OC)c2ccc(C)cc2C)c(C(=O)O)s1 (stereo not shown) [Compound 82] | 0.1 to 8.3 | 0.1 to 8.3 | > 8.3 |
| COP(=O)(Nc1cc(-c2ccc(-c3cc4ncccc4o3)cc2)sc1C(=O)O)C1CC=C(C)CC1 (stereo not shown) [Compound 83] | < 0.1 | 0.1 to 8.3 | > 8.3 |
| CCCOP(=O)(Nc1cc(-c2ccc(Cl)cc2)sc1C(=O)O)c1ccc(C)cc1C (stereo not shown) [Compound 87] | 0.1 to 8.3 | 0.1 to 8.3 | > 8.3 |
| COP(=O)(Nc1cc(-c2cccc(F)c2)sc1C(=O)O)c1ccc(C)cc1C (stereo not shown) [Compound 88] | 0.1 to 8.3 | 0.1 to 8.3 | > 8.3 |
| Cc1ccc(P(=O)(Nc2cc(-c3ccc(Cl)cc3)sc2C(=O)O)OC(C)C)c(C)c1 (stereo not shown) [Compound 89] | 0.1 to 8.3 | 0.1 to 8.3 | > 8.3 |
| COP(=O)(Nc1cc(-c2cc3ccccc3o2)sc1C(=O)O)c1ccc(C)cc1C (stereo not shown) [Compound 96] | < 0.1 | 0.1 to 8.3 | > 8.3 |
| COP(=O)(Nc1cc(-c2cc3ccccc3s2)sc1C(=O)O)c1ccc(C)cc1C (stereo not shown) [Compound 97] | < 0.1 | 0.1 to 8.3 | > 8.3 |
| COP(=O)(Nc1cc(-c2cccs2)sc1C(=O)O)c1ccc(C)cc1C (stereo not shown) [Compound 98] | 0.1 to 8.3 | 0.1 to 8.3 | > 8.3 |
| COP(=O)(Nc1cc(-c2cccnc2)sc1C(=O)O)c1ccc(C)cc1C (stereo not shown) [Compound 99] | 0.1 to 8.3 | > 8.3 | > 8.3 |
| COP(=O)(Nc1cc(-c2ccc(-c3cc4nc(C)cc(N)n4n3)cc2)sc1C(=O)O)c1ccc(C)cc1C (stereo not shown) [Compound 100] | < 0.1 | < 0.1 | > 8.3 |
| COP(=O)(Nc1cc(-c2ccc(C#Cc3cncn3C)cc2)sc1C(=O)O)c1ccc(C)cc1C (stereo not shown) [Compound 101] | < 0.1 | 0.1 to 8.3 | > 8.3 |
| COP(=O)(Nc1cc(-c2ccc(C#CC3CCCC3)cc2)sc1C(=O)O)c1ccc(C)cc1C (stereo not shown) [Compound 102] | 0.1 to 8.3 | > 8.3 | > 8.3 |
| COP(=O)(Nc1cc(-c2ccc(C#Cc3ccsc3)cc2)sc1C(=O)O)c1ccc(C)cc1C (stereo not shown) [Compound 103] | < 0.1 | < 0.1 | > 8.3 |
| COP(=O)(Nc1cc(-c2ccc(C#CCC(C)C)cc2)sc1C(=O)O)c1ccc(C)cc1C (stereo not shown) [Compound 104] | 0.1 to 8.3 | > 8.3 | > 8.3 |
| COP(=O)(Nc1cc(-c2ccc(-c3cc4nc(C)ccn4n3)cc2)sc1C(=O)O)c1ccc(C)cc1C (stereo not shown) [Compound 105] | < 0.1 | < 0.1 | > 8.3 |
| C#CCOP(=O)(Nc1cc(-c2ccc(Cl)cc2)sc1C(=O)O)c1ccc(C)cc1C (stereo not shown) [Compound 106] | 0.1 to 8.3 | 0.1 to 8.3 | > 8.3 |

| SMILES | IC50 [1] [µM] | EC50 [1] [µM] | CC50 (in vitro) [µM] |
| --- | --- | --- | --- |
| CCOC(=O)OC(C)N(c1cc(-c2ccc(Cl)cc2)sc1C(=O)OC(C)OC(=O)OC)P(=O)(OC)c1ccc(C)cc1C (stereo not shown) [Compound 108] | > 8.3 | 0.1 to 8.3 | > 8.3 |
| CCOP(=O)(Nc1cc(-c2ccc(Cl)cc2)sc1C(=O)O)C1CCC(C)CC1 (stereo not shown) [Compound 110] | 0.1 to 8.3 | > 8.3 | > 8.3 |
| COP(=O)(Nc1cc(-c2ccc(Cl)cc2)sc1C(N)=O)c1ccc(C)cc1C (stereo not shown) [Compound 111] | > 8.3 | > 8.3 | > 8.3 |
| COP(=O)(Nc1cc(-c2ccc(-c3cc4ncccn4n3)cc2)sc1C(=O)OCc1ccccc1)c1ccc(C)cc1C (stereo not shown) [Compound 112] | 0.1 to 8.3 | 0.1 to 8.3 | > 8.3 |
| COP(=O)(c1ccc(C)cc1C)N(C)c1cc(-c2ccc(Cl)cc2)sc1C(=O)O (stereo not shown) [Compound 113] | < 0.1 | 0.1 to 8.3 | > 8.3 |
| COP(=O)(Nc1cc(-c2ccc(NC(=O)c3cscn3)cc2)sc1C(=O)O)c1ccc(C)cc1C (stereo not shown) [Compound 115] | < 0.1 | < 0.1 | > 8.3 |
| COP(=O)(Nc1cc(I)sc1C(=O)O)c1ccc(C)cc1C (stereo not shown) [Compound 116] | 0.1 to 8.3 | > 8.3 | > 8.3 |
| CCOP(=O)(Nc1cc(-c2ccc(Cl)cc2)sc1C(=O)O)C1CC=C(C)CC1 (stereo not shown) [Compound 117] | 0.1 to 8.3 | > 8.3 | > 8.3 |
| COP(=O)(Nc1cc(-c2ccc(C#CC3CC3)cc2)sc1C(=O)O)c1ccc(C)cc1C (stereo not shown) [Compound 118] | < 0.1 | 0.1 to 8.3 | > 8.3 |
| COP(=O)(Nc1cc(-c2ccc(-c3cc4ncccc4o3)cc2)sc1C(=O)O)c1ccc(Cl)cc1F (stereo not shown) [Compound 119] | < 0.1 | < 0.1 | > 8.3 |
| COP(=O)(Nc1cc(-c2ccc(-c3cccc([N+](=O)[O-])c3)cc2)sc1C(=O)O)c1ccc(C)cc1C (stereo not shown) [Compound 120] | 0.1 to 8.3 | > 8.3 | > 8.3 |
| COP(=O)(Nc1cc(-c2ccc(-c3cccc4ncccc34)cc2)sc1C(=O)O)c1ccc(C)cc1C (stereo not shown) [Compound 121] | < 0.1 | 0.1 to 8.3 | > 8.3 |
| COP(=O)(Nc1cc(-c2ccc(-c3ccc(OCc4ccccc4)nc3)cc2)sc1C(=O)O)c1ccc(C)cc1C (stereo not shown) [Compound 122] | 0.1 to 8.3 | > 8.3 | > 8.3 |
| COc1cc(-c2ccc(-c3cc(NP(=O)(OC)c4ccc(C)cc4C)c(C(=O)O)s3)cc2)cc(OC)c1OC (stereo not shown) [Compound 123] | 0.1 to 8.3 | > 8.3 | > 8.3 |
| COP(=O)(Nc1cc(-c2ccc(-c3ccccc3F)cc2)sc1C(=O)O)c1ccc(C)cc1C (stereo not shown) [Compound 124] | 0.1 to 8.3 | 0.1 to 8.3 | > 8.3 |
| COP(=O)(Nc1cc(-c2ccc(-c3cc4ccccc4o3)cc2)sc1C(=O)O)c1ccc(C)cc1C (stereo not shown) [Compound 125] | < 0.1 | < 0.1 | > 8.3 |
| COP(=O)(Nc1cc(-c2ccc(N)cc2)sc1C(=O)O)c1ccc(C)cc1C (stereo not shown) [Compound 126] | 0.1 to 8.3 | > 8.3 | > 8.3 |
| COP(=O)(Nc1cc(-c2ccc([N+](=O)[O-])cc2)sc1C(=O)O)c1ccc(C)cc1C (stereo not shown) [Compound 127] | < 0.1 | 0.1 to 8.3 | > 8.3 |
| COP(=O)(Nc1cc(-c2ccc(-c3c(C)noc3C)cc2)sc1C(=O)O)c1ccc(C)cc1C (stereo not shown) [Compound 128] | 0.1 to 8.3 | > 8.3 | > 8.3 |
| COP(=O)(Nc1cc(-c2ccc(-c3ccc(C(F)(F)F)cc3)cc2)sc1C(=O)O)c1ccc(C)cc1C (stereo not shown) [Compound 129] | < 0.1 | 0.1 to 8.3 | > 8.3 |
| COP(=O)(Nc1cc(-c2ccc(I)cc2)sc1C(=O)O)c1ccc(C)cc1C (stereo not shown) [Compound 132] | 0.1 to 8.3 | – | > 8.3 |
| COP(=O)(Nc1cc(-c2ccc(Cl)cc2)sc1C(=O)O)c1ccc(Cl)cc1F (stereo not shown) [Compound 133] | 0.1 to 8.3 | 0.1 to 8.3 | > 8.3 |
| COP(=O)(Nc1cc(-c2ccc(Cl)cc2)sc1C(=O)O)c1ccc(Cl)cc1C (stereo not shown) [Compound 134] | < 0.1 | 0.1 to 8.3 | > 8.3 |
| CCOP(=O)(Nc1cc(-c2ccc(Cl)cc2)sc1C(=O)O)c1ccc(Cl)cc1C (stereo not shown) [Compound 136] | < 0.1 | 0.1 to 8.3 | > 8.3 |
| COP(=O)(c1ccc(C)cc1C)N(C)c1cc(-c2ccc(-c3cc4ncccn4n3)cc2)sc1C(=O)O (stereo not shown) [Compound 138] | < 0.1 | < 0.1 | > 8.3 |
